{
  "source": "patent US10351594B2",
  "about": "“Process for preparing compounds having triple activities of thrombolysis, antithrombosis, and radical scavenging” (Shanghai Lumosa Therapeutics Co., Ltd., priority 2013, dated 2019)",
  "key": {"[1]": {"test": "Hydroxyl free radical scavenging activity (DMPO signal peak height)", "format": "biochemical", "details": "n = 6; read-out: EC50 of scavenging •OH", "experimental": "11.316 mg DMPO ([…], Sigma) was dissolved in 1 mL of pure water to obtain 0.1 M DMPO solution. […] FeSO4.7H2O was dissolved in 1 mL of pure water to obtain 10 mM solution. 30% medical H2O2 was diluted to 0.2%.\nThe first peak height of the OH signal of 2.5 μL FeSO4.7H2O solution+2.5 μL DMPO solution+5 μL H2O2 solution+5 μL water was measured and repeated for 6 times. This peak height defined as the known peak height of OH signal. The first peak height of the OH signal of 2.5 μL FeSO4.7H2O solution+2.5 μL DMPO solution+5 μL H2O2 solution+5 μL solution of one of the compounds 5Aa-p was measured and repeated for 6 times. This peak height defined as the residual peak height of the OH signal scavenged by one of the compounds 5Aa-p. Scavenging ratio=(known peak height of OH signal−residual peak height of OH signal of compounds 5Aa-p)/known peak height of OH signal"}, "[2]": {"test": "Superoxide anionic radical scavenging activity (xanthine/xanthine oxidase, DMPO)", "format": "biochemical", "details": "n = 6", "experimental": "[…] xanthine was dissolved in 1 mL of pure water to obtain 0.5 M xanthine solution (milk white color, largely insoluble). Commercially available raw solution of xanthine oxidase was diluted 10 folds to obtain solution of xanthine oxidase. Saturated DETAPAC solution was diluted 20 folds to obtain 0.9 mM solution. 11.316 mg DMPO was dissolved in 1 mL of pure water to obtain 0.1 M DMPO solution.\n5 μL DMPO solution+5 μL DETAPAC solution+5 μL xanthine solution+5 μL xanthine oxidase solution+5 μL compounds 5Aa-p solution\nThe first peak height of superoxide anion signal of 5 μL DMPO solution+5 μL DETAPAC solution+5 μL xanthine solution+5 μL xanthine oxidase solution+5 μL water was measured and repeated for 6 times. This peak height defined as the known peak height of superoxide anion signal. The first peak height of superoxide anion signal of 5 μL DMPO solution+5 μL DETAPAC solution+5 μL xanthine solution+5 μL xanthine oxidase solution+5 μL solution of one of compounds 5Aa-p was measured and repeated for 6 times. This peak height defined as the residual peak height of the superoxide anion signal scavenged by one of the compounds 5Aa-p. Scavenging ratio=(known peak height of superoxide anion signal−residual peak height of superoxide anion signal of compounds 5Aa-p)/known peak height of superoxide anion signal"}, "[3]": {"tested_on": "thrombus (rat arteriovenous bypass thrombolysis model)", "test": "Thrombolytic activity via intravenous administration, rat arteriovenous bypass thrombolysis model", "format": "in vivo, male SD rats", "details": "rat, intravenous injection, 5Aa-p 0.1 nmol/kg, 1 hour, n = 10", "experimental": "200-220 g male SD rats were anesthetized with 20% urethane solution (6 mL/kg, ip). Anesthetized rats were fixed in a supine position, and the right common carotid artery was separated, clamped at the proximal end with an arterial clip, and penetrated with a suture at the proximal and distal ends, respectively. The suture at the distal end is clipped tightly by a hemostatic clamp at the skin/fur. Cannulation was performed at the distal end, the arterial clamp was loosened, and about 1 ml arterial blood was discharged into a 1 mL EP vial. 0.1 mL rat arterial blood was injected into a vertically fixed glass tube (15 mm in length, with an inner diameter of 2.5 mm and an outer diameter of 5.0 mm, sealed with a rubber stopper at the bottom), into which was immediately inserted a thrombus immobilization screw made of stainless steel. […] 40 min after the blood coagulated, the rubber stopper at the bottom of the glass tube was removed, the stem of the thrombus immobilization screw was fixed by forceps, and the thrombus-wrapped thrombus immobilization screw was carefully taken out from the glass tube and precisely weighted.\nA bypass cannula was composed of 3 segments. The middle segment was a polyethylene tube having a length of 60 mm and an inner diameter of 3.5 mm. The segments on both ends were similar polyethylene tubes having a length of 100 mm, an inner diameter of 1 mm and an outer diameter of 2 mm, one end of which was pulled to form a tip, with an outer diameter of 1.0 mm (used in inserting into the rat carotid artery or vein), the other end of which was sheathed by a polyethylene tube having a length of 7 mm and an outer diameter of 3.5 mm (thickened, used in inserting into the polyethylene tube of the middle segment). The inner wall of the 3-segment cannula was entirely silylated. The thrombus-wrapped thrombus immobilization screw was placed into the polyethylene tube of the middle segment, and both ends of the tube sheath the thickened ends of two polyethylene tubes. The cannula was filled with a heparin solution in normal saline (50 IU/kg) through the tip end by using an injector and was ready for use.\nThe left external jugular vein of the rat was separated and penetrated with a suture at the proximal and distal ends respectively, and the distal end was ligated. An incision was carefully made on the exposed left external jugular vein, and the tip of the bypass cannula prepared as described above was inserted into the proximal end of the incision in the left external jugular vein, away from the stem of the thrombus immobilization screw in the middle segment of the bypass cannula (which accommodated the accurately weighed thrombus immobilization screw). A precise amount of heparin in saline (50 IU/kg) was injected through the tip at the other end by using an injector. At this moment, without removing the injector from the polyethylene tube, the tube between the injector and the polyethylene tube was clamped with a hemostatic clamp. The blood flow was stopped by clamping the proximal end of the right common carotid artery with an arterial clip, and an incision was cut carefully across the common carotid artery near the clip. The injector was pulled out of the polyethylene tube through the tip, and the tip of the polyethylene tube was then inserted into the proximal end of the artery incision. Both ends of the bypass cannula were fixed to the artery or vein with #4 sutures.\nA scalp needle was used to pass saline solution, a urokinase in saline solution or varied concentrations of the compounds in saline solution through the middle section of the bypass cannula (which accommodated the accurately weighed thrombus immobilization screw) to a position at the proximal vein and away from the thrombus immobilization screw. The artery clip was then removed to allow blood to flow from the artery to the vein through the bypass cannula. A rat arteriovenous bypass thrombolysis model was thus established. […]"}},
  "note": "Marks after values point to notes of the source that are not given here.",
  "data": [
    {"smiles": "CC(C)C[C@H](NC(=O)[C@H](C)NC(=O)[C@@H]1CCCN1)C(=O)NCCCC[C@H](NC(=O)[C@@H]1Cc2cc(O)c(O)cc2C(C)(C)N1)C(=O)O", "note": "[Compound 5Al, 3S-6,7-dihydroxy-1,1-dimethyl-1,2,3,4-tetrahydro-isoquinoline-3-acyl-Lys(Pro-Ala-Leu)]", "values": [
      {"measurement": "EC50", "setting": "[1]", "result": "489 ± 32", "unit": "µM"},
      {"measurement": "EC50", "setting": "[2]", "result": "414 ± 97", "unit": "µM"},
      {"measurement": "Weight reduction in thrombus", "setting": "[3]", "result": "14.65 ± 2.86^a mg"}
    ]},
    {"smiles": "C[C@H](NC(=O)[C@@H]1CCCN1)C(=O)N1CCC[C@H]1C(=O)NCCCC[C@H](NC(=O)[C@@H]1Cc2cc(O)c(O)cc2C(C)(C)N1)C(=O)O", "note": "[Compound 5Ae, 3S-6,7-dihydroxy-1,1-dimethyl-1,2,3,4-tetrahydro-isoquinoline-3-acyl-Lys(Pro-Ala-Pro)]", "values": [
      {"measurement": "EC50", "setting": "[1]", "result": "466 ± 47", "unit": "µM"},
      {"measurement": "EC50", "setting": "[2]", "result": "481 ± 45", "unit": "µM"},
      {"measurement": "Weight reduction in thrombus", "setting": "[3]", "result": "13.63 ± 1.92^a mg"}
    ]}
  ]
}
